This is an account of results in ChEMBL document CHEMBL6103592, “Discovery of novel thiazole-pleuromutilin derivatives with potent antibacterial activity” (Eur J Med Chem, 2025).

SMILES strings stand for the structures. pIC50: −log10 of the molar value. Values after ≈ are worked out from the molar mass of the structure shown. Active and inactive are the calls of the source. The calls are words filed in the database; no cut-off is given here.

Usually IC50 stands for the midpoint of a concentration-inhibition curve. For orientation: pIC50 means the negative decadic logarithm of the IC50, by convention in mol/L. A word on the MIC: it is the least concentration at which growth counts as inhibited.

For series [1], the system named is Staphylococcus aureus. Briefly: Antibacterial efficacy against methicillin-resistant Staphylococcus aureus ATCC 43300 infected in cyclophosphamide-induced neutropenic systemic infection Kunming mouse model assessed as reduction in bacterial load in kidney at 20 mg/kg, iv pretreated with cyclophosphamide for 1 hr followed by compound addition and measured after 5 days. In kind it is functional, organism-based. Particulars: time 5.0 day.

Series [2] concerns Staphylococcus aureus. Briefly: Antibacterial efficacy against methicillin-resistant Staphylococcus aureus ATCC 43300 infected in cyclophosphamide-induced neutropenic systemic infection Kunming mouse model assessed as alveolar epithelial cell necrosis at 20 mg/kg, iv pretreated with cyclophosphamide for 1 hr followed by compound addition and measured after 5 days by light microscopic analysis. The format is functional, organism-based. Particulars: time 5.0 day.

Series [3] concerns Staphylococcus aureus. Briefly: Antibacterial efficacy against methicillin-resistant Staphylococcus aureus ATCC 43300 infected in cyclophosphamide-induced neutropenic systemic infection Kunming mouse model assessed as reduction in bacterial load in liver at 20 mg/kg, iv pretreated with cyclophosphamide for 1 hr followed by compound addition and measured after 5 days. The format is functional. To be noted: time 5 day.

In series [4] the test system is Staphylococcus aureus. The experiment in a line: Antibacterial efficacy against methicillin-resistant Staphylococcus aureus ATCC 43300 infected in cyclophosphamide-induced neutropenic systemic infection Kunming mouse model assessed as reduction in bacterial load in lung at 20 mg/kg, iv pretreated with cyclophosphamide for 1 hr followed by compound addition and measured after 5 days. In kind it is functional. To be noted: time 5 day.

Series [5] in a line: Cytotoxicity against human HEK293T cells assessed as survival rate incubated for 24 hrs by CCK-8 assay. In kind it is toxicity, cell-based, HEK-293T. (In general: Tetrazolium dyes change colour on reduction, which living cells bring about.)
Series [6] can be described thus: Cytotoxicity against human HEK293T cells assessed as survival rate at 200 micromol/L incubated for 24 hrs by CCK-8 assay relative to control. The format is toxicity, cell-based, HEK-293T. Particulars: dose 200 µmol/L, read-out: Survival.
Series [7] has as its system HepG2. Briefly: Cytotoxicity against human HepG2 cells assessed as survival rate at 200 micromol/L incubated for 24 hrs by CCK-8 assay relative to control. The format is functional. Particulars: HepG2, 24 h, dose 200 µmol/L, read-out: Survival.
Series [8] relates to HepG2. Briefly: Cytotoxicity against human HepG2 cells assessed as survival rate incubated for 24 hrs by CCK-8 assay. The format is functional, cell-based. Particulars: HepG2, 24 h.
For a further series, the system named is Escherichia coli. Briefly: Antibacterial activity against Escherichia coli ATCC 25922 assessed as inhibition of visible bacterial growth incubated for 24 hrs by CLSI based broth microdilution method. In kind it is functional. (In general: Dilution methods test growth across graded concentrations, often in twofold steps.)
For series [9], the system named is Staphylococcus aureus. Briefly: Antibacterial activity against Staphylococcus aureus ATCC 25923 assessed as inhibition of visible bacterial growth incubated for 24 hrs by CLSI based broth microdilution method. The format is functional.
The subject of a further series is Mycoplasma. The experiment in a line: Antibacterial activity against Mycoplasma F3 assessed as inhibition of visible bacterial growth incubated for 24 hrs by CLSI based broth microdilution method. In kind it is functional.
The next series deals with Streptococcus agalactiae. The experiment in a line: Antibacterial activity against Streptococcus agalactiae assessed as inhibition of visible bacterial growth incubated for 24 hrs by CLSI based broth microdilution method. In kind it is functional.
The next series relates to Enterococcus faecalis. Briefly: Antibacterial activity against Enterococcus faecalis assessed as inhibition of visible bacterial growth incubated for 24 hrs by CLSI based broth microdilution method. The format is functional.
Series [10] has as its system Staphylococcus aureus. The experiment in a line: Antibacterial activity against methicillin-resistant Staphylococcus aureus ATCC 43300 assessed as inhibition of visible bacterial growth incubated for 24 hrs by CLSI based broth microdilution method. The format is functional.
Series [11] relates to Staphylococcus aureus. The experiment in a line: Antibacterial activity against methicillin-resistant Staphylococcus aureus ATCC 43300 assessed as reduction in bacterial proteins level at 0.5 to 2 microg/ml measured for 4 hrs. The format is functional, organism-based. Particulars: dose 0.5-2 µg/ml.
Series [12] has as its system Staphylococcus aureus. Briefly: Drug resistance, ratio of MIC for methicillin-resistant Staphylococcus aureus ATCC 43300 after 21 passages to MIC for methicillin-resistant Staphylococcus aureus ATCC 43300 during first exposure. The format is functional.
Series [13] deals with Staphylococcus aureus. Briefly: Antibacterial activity against methicillin-resistant Staphylococcus aureus ATCC 43300 assessed as post antibiotic effect at 1 times MIC measured after 1 hr. The format is functional.
For series [14], the system named is Staphylococcus aureus. Briefly: Antibacterial activity against methicillin-resistant Staphylococcus aureus ATCC 43300 assessed as post antibiotic effect at 2 times MIC measured after 1 hr. In kind it is functional.
Series [15] concerns Staphylococcus aureus. Briefly: Antibacterial activity against methicillin-resistant Staphylococcus aureus ATCC 43300 assessed as post antibiotic effect at 4 times MIC measured after 1 hr. In kind it is functional.
In series [16] the test system is Staphylococcus aureus. The experiment in a line: Antibacterial activity against methicillin resistant Staphylococcus aureus. In kind it is functional.
The subject of series [17] is Staphylococcus aureus. The experiment in a line: Bactericidal activity against methicillin-resistant Staphylococcus aureus ATCC 43300 assessed as increase in colony forming unit count at 1 times MIC incubated after 8 hrs by time-kill assay. The format is functional, organism-based.
Series [18] deals with Staphylococcus aureus. Briefly: Antibacterial activity against methicillin-resistant Staphylococcus aureus ATCC 43300 assessed as post antibiotic effect at 8 times MIC measured after 1 hr. The format is functional.
The test system of series [19] is Staphylococcus aureus. Briefly: Bactericidal activity against methicillin-resistant Staphylococcus aureus ATCC 43300 at 1 times MIC incubated upto 24 hrs by time-kill assay. In kind it is functional, organism-based.

On to `C=C[C@]1(C)C[C@@H](OC(=O)CSC(C)(C)CNC(=O)[C@H](N)C(C)C)[C@]2(C)[C@H](C)CC[C@]3(CCC(=O)[C@H]32)[C@@H](C)[C@@H]1O` [VALNEMULIN], for which the outcome in the series with Staphylococcus aureus [1] and with Staphylococcus aureus [2] was inactive. The results for the Activity in the series on Staphylococcus aureus [3] and in the series with Staphylococcus aureus [4] were 0.71 log10CFU and 0.98 log10CFU, respectively. Moreover, in series [5], the half-maximal inhibitory concentration (IC50) at 24 h worked out at 52 µM. Further, in series [6], the viability at 24 h, 200 µM worked out at 16%. The viability at 200 µM with HepG2 [7] is 12%. Also, in the series on HepG2 [8], the pIC50 is 3.99.

For `C=C[C@]1(C)C[C@@H](OC(=O)CSc2nc(OC(=O)c3ccc(C)cc3)cs2)[C@]2(C)[C@H](C)CC[C@]3(CCC(=O)[C@H]32)[C@@H](C)[C@@H]1O`, the MIC is above 32 µg/mL in the series with Escherichia coli; 0.25 µg/mL (≈ 0.409 µM) in the series on Staphylococcus aureus [9]; 0.5 µg/mL (≈ 0.817 µM) in the series on Mycoplasma; 0.063 µg/mL (≈ 0.103 µM) with Streptococcus agalactiae; above 32 µg/mL in the series with Enterococcus faecalis; 1 µg/mL (≈ 1.63 µM) with Staphylococcus aureus [10].

Consider `C=C[C@]1(C)C[C@@H](OC(=O)CSCCN(CC)CC)[C@]2(C)[C@H](C)CC[C@]3(CCC(=O)[C@H]32)[C@@H](C)[C@@H]1O` [TIAMULIN], for which the outcome in the series with Staphylococcus aureus [1] was inactive. The outcome with Staphylococcus aureus [2], in the series on Staphylococcus aureus [11], in the series on Staphylococcus aureus [17] and with Staphylococcus aureus [19] was Active. The MIC is above 32 µg/mL in the series with Escherichia coli; 0.25 µg/mL (≈ 0.506 µM) in the series with Staphylococcus aureus [9]; 0.5 µg/mL (≈ 1.01 µM) in the series on Staphylococcus aureus [16]; 0.008 µg/mL (≈ 0.0162 µM) in the series on Mycoplasma; 0.125 µg/mL (≈ 0.253 µM) with Streptococcus agalactiae; above 32 µg/mL in the series on Enterococcus faecalis. The MIC with Staphylococcus aureus [10] was found to be 0.25 µg/mL (≈ 0.506 µM). In addition, the Ratio in the series with Staphylococcus aureus [12] came out at 64. In addition, the PAE in the series on Staphylococcus aureus [13] is 0.42 h; in the series on Staphylococcus aureus [14] it was 0.91 h; with Staphylococcus aureus [15], 1.54 h; in the series on Staphylococcus aureus [18], 2.2 h.

As to `C=C[C@]1(C)C[C@@H](OC(=O)CSC2=NC(=O)CS2)[C@]2(C)[C@H](C)CC[C@]3(CCC(=O)[C@H]32)[C@@H](C)[C@@H]1O`, the MIC in the series on Escherichia coli was above 32 µg/mL; with Staphylococcus aureus [9], 0.5 µg/mL (≈ 1.01 µM); in the series on Mycoplasma, 0.5 µg/mL (≈ 1.01 µM); in the series with Streptococcus agalactiae it was 0.125 µg/mL (≈ 0.253 µM); with Enterococcus faecalis, above 32 µg/mL; in the series with Staphylococcus aureus [10], 1 µg/mL (≈ 2.03 µM).

Consider `C=C[C@]1(C)C[C@@H](OC(=O)CSc2nc(OC(=O)c3cccc(F)c3)cs2)[C@]2(C)[C@H](C)CC[C@]3(CCC(=O)[C@H]32)[C@@H](C)[C@@H]1O`, for which the minimal inhibitory concentration (MIC) in the series on Escherichia coli was above 32 µg/mL; with Staphylococcus aureus [9], 2 µg/mL (≈ 3.25 µM); with Mycoplasma, 0.5 µg/mL (≈ 0.812 µM); in the series with Streptococcus agalactiae, 0.125 µg/mL (≈ 0.203 µM); in the series with Enterococcus faecalis it was above 32 µg/mL; in the series on Staphylococcus aureus [10], 0.5 µg/mL (≈ 0.812 µM).

Take `C=C[C@]1(C)C[C@@H](OC(=O)CSc2nc(OC(=O)c3cccc(Br)c3)cs2)[C@]2(C)[C@H](C)CC[C@]3(CCC(=O)[C@H]32)[C@@H](C)[C@@H]1O`: the MIC in the series with Escherichia coli is above 32 µg/mL; with Staphylococcus aureus [9], 2 µg/mL (≈ 2.96 µM); in the series with Mycoplasma, 0.25 µg/mL (≈ 0.369 µM); in the series with Streptococcus agalactiae it was 0.063 µg/mL (≈ 0.0931 µM); in the series on Enterococcus faecalis, above 32 µg/mL; in the series with Staphylococcus aureus [10] it was 0.5 µg/mL (≈ 0.739 µM).

Take `C=C[C@]1(C)C[C@@H](OC(=O)CSc2nc(OC(=O)C3CCCC3)cs2)[C@]2(C)[C@H](C)CC[C@]3(CCC(=O)[C@H]32)[C@@H](C)[C@@H]1O`: the MIC in the series with Escherichia coli was above 32 µg/mL; with Staphylococcus aureus [9], 2 µg/mL (≈ 3.39 µM); with Mycoplasma, 0.25 µg/mL (≈ 0.424 µM); with Streptococcus agalactiae, 0.25 µg/mL (≈ 0.424 µM); in the series with Enterococcus faecalis, above 32 µg/mL; in the series with Staphylococcus aureus [10], 1 µg/mL (≈ 1.7 µM).
